Where two headings read alike, the source gives them in different places.
Key:
PSAPP mice [1] = experiment: Postmortem immunohistochemistry of plaque load in cortex and hippocampus; assay type: in vivo, mouse
Oral bioavailability = conditions: in vivo
PSAPP mice [2] = experiment: Postmortem immunohistochemistry of plaque load in cortex and hippocampus; assay type: in vivo, mouse; remark: listed apart in the source
Method: Mice were perfused transcardially with 4% paraformaldehyde and 40 μm Coronal sections were collected. Sections were sequentially incubated in 0.3% H2O2 for 10 minutes, blocking solution for 2 hrs, blocking solution containing the primary antibody (rabbit anti-beta 1-42; rabbit anti-beta1-40, from Chemicon International and rat anti-CD45) for 48 hours at 4° C., and blocking solution containing biotinylated antibody or fluorescently-labeled antibody for 2 hours at room temperature. Sections were visualized in a bright field microscope or a confocal microscope, and the optical density was obtained using MetaMorph software.
After repeated imaging, brains were fixed and subjected to postmortem immunohistochemistry with amyloid beta specific antibodies β1-40 and β1-42 to evaluate the plaque load (area occupied by immunostaining of plaque) in cortex and hippocampus.
(§1) PSB0474 was systemically administered to PSAPP mice via intraperitoneal injection for 2, 4 and 6 consecutive days. In one group, prior to evaluation and following to administration for 6 consecutive days, treatment was suspended for two weeks (6+2 weeks group). Brains were then fixed and plaque load was evaluated by immunostaining with the amyloid beta specific antibodies: β1-40 and β1-42. Representative images of plaque load in cortex and hippocampus from animals that received injections of PSB0474 according to the foregoing injection schedules are shown in FIG. 5(A)-(D). […] Whereas, when administration of PSB0474 was stopped for 2 weeks following six consecutive days of treatment (denoted as the 6+2 weeks group), β1-40 staining rebounded; although to a level lower than observed in mice treated with saline as a vehicle control. FIGS. 6A and 6B depict the reduction in plaque load (%) the cortex and hippocampus, respectively, in PSAPP mice after treatment with 3-phenacyl-UDP for 2, 4, or 6 consecutive days, as assayed by staining with the β1-40 antibody. FIGS. 6C-6F depict data obtained following administration of different dosages of PSB0474.
To generate these graphs showing plaque load, mice were euthanized, brain sections cut and antibodies directed against Aβ42 were used to disclose Aβ plaques. Images were acquired digitally and an algorithm was applied to threshold the image so that plaques were isolated from the background. The algorithm then calculated the percent area of the field of view occupied by the plaques.
Brain samples were collected for Abeta analysis with immunostaining. Brains samples were collected after transcardial perfusion with phosphate buffer and 4% paraformaldehyde. Floating brain sections (40 µm) were collected using a microtome. Immunostaining for Aβ40 and Aβ42 were performed according to previously established protocol. Images with DAB staining were collected with brightfield microscopy and analyzed with ImageJ Macro. All data analysis and statistics were performed in GraphPad Prism 6.0.

[3] = Half-life in human whole blood; assay type: in vitro ADME
PSAPP mice [4] = experiment: Tolerability of a higher dose in the plaque burden study; assay type: in vivo, mouse; conditions: 1000× increase in dose
Method: as §1

P2Y6 receptor [5] = molecular target: T1, P2Y6 receptor (Homo sapiens, UniProt Q15077); conditions: cited from earlier work
T1 sequence (Q15077 whole entry): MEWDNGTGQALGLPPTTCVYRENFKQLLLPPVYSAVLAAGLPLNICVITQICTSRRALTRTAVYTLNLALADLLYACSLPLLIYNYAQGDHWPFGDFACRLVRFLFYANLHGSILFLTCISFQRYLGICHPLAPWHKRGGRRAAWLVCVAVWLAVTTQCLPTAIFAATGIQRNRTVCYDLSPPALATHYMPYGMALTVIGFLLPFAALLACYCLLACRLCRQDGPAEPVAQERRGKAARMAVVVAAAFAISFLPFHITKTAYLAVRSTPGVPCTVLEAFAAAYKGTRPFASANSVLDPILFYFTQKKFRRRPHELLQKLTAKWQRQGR

PSAPP mice [6] = experiment: Contextual fear conditioning test (freezing behavior); assay type: in vivo, mouse
Method: On day one, animals were trained in a fear conditioning apparatus for a total of 7 minutes with a two-pairing paradigm of cue and mild foot shock (a 30-s acoustic-conditioned stimulus, 80 dB; a 2-s shock stimulus, 0.5 mA). To evaluate contextual fear learning, the animals were returned to the training context 24 hours post-training, and freezing behavior was scored for 5 minutes. Freezing behavior was monitored by MotorMonitor (Hamilton Kinder) and scored every 5 seconds.
In this study, the fear conditioning associative learning paradigm was used as a rapid cognition assay for PSAPP mice. This study allowed us to probe cognitive function with a single training day followed in 24 hours by tests for contextual and cued fear learning. Contextual fear learning is dependent upon a brain area that has been implicated as a locus for cognitive decline in AD: the hippocampus. Two pairings of CS—US for fear conditioning were followed 24 hours later by testing for contextual and cued fear learning. Previous studies have reported that PSAPP animals appear to have a selective hippocampus-dependent impairment in associative learning following two pairings of conditioned stimuli for fear conditioning.
This represents a decrease in the cognitive impairment observed in the untreated mice.

PSAPP mice [7] = experiment: Two-photon in vivo imaging of methoxyX04 labeled amyloid plaques in barrel cortex; design: species or system mouse; conditions: acute i.c.v. treatment
Description: In this study, PSAPP mice were anesthetized using isoflurane and a thin-skull preparation was used to minimize the surface damage. Amyloid plaques were visualized with methoxyX04 labeling and blood plasma was labeled with Rhodamine dextran to facilitate re-localization of the same imaging area. Stack images were obtained using a two-photon system (Prairie Technologies) with excitation at 850 nm. The emission was detected by external photomultiplier tubes (525/70; DLCP 575; 607/45 nm). Animals were anesthetized and immobilized in a stereotaxic frame. For each injection, 1 μl of 10 mM UDP or other suitable compounds in artificial cerebrospinal fluid (ACSF) as the vehicle were injected intraventricularly using the following coordinates: AP 0.2 mm, ML 1 mm, and DV 2.2 mm. To evaluate the effect of UDP on plaque burden, two-photon microscopy was used to assess the amyloid plaques in the barrel cortex in living PSAPP mice. Amyloid plaques were stained by systemically administered methoxy-[…]. One day prior to imaging, PSAPP mice were injected with methoxyX04 to label the amyloid plaques. On the imaging day, to facilitate the re-location of the same imaging area, blood plasma was labeled with Rhodamine dextran. Images were obtained from the same start- and end-point to ensure the same image volume. The results were shown in a maximum intensity projection of a fluorescent stack containing 45 planes. Representative images of methoxyX04 labeled amyloid plaques and angiopathy on days 1 are shown in FIG. 1(A)-(C) Immediately after imaging, animals were injected with ACSF or UDP intracerebroventricularly (i.c.v.) and allowed to recover. On day 4, animals were subjected to a second period of imaging of the same regions studied on day 1 and the results are shown in FIG. 1(D)-(F). The similar pattern of angiopathy (shown by open arrows) indicated the same imaging area.

PSAPP mice [8] = experiment: Hippocampal long-term potentiation (LTP) recording; assay type: in vivo, mouse; conditions: acute treatment
Method: Hippocampal slices (350 μm thick) were prepared from 6-month-old PSAPP mice. Baseline responses were obtained every 10 seconds and Input-output (I/O) curves, paired-pulse modification and LTP were successively measured. The stimulation intensity was set to a level that gives a value of 30% of the maximum obtained. LTP were induced by high frequency stimulation (HFS, 100 pulses at 100 Hz, four times) or by theta-burst stimulation (TBS, 10 bursts at 5 Hz, repeated 10 times in 15 s intervals).
Accumulated evidence has shown that amyloid peptides naturally secreted or isolated from Alzheimer's brains impair synaptic plasticity, especially hippocampal long-term potentiation (Walsh et al., 2002). Therefore, we further performed LTP recordings in PASPP mice and investigated whether P2Y6 receptor-mediated plaque clearance affects synaptic plasticity. […] First, it was observed that LTP at the schaffer collateral synapse within the CA1 region was depressed in PSAPP mice, as compared with littermates (FIG. 8(A)).

P2Y4 receptor = molecular target: T2, P2Y4 receptor (Homo sapiens, UniProt P51582); experiment: Ca2+ mobilizing effect (fluo-4) in 1321N1 astrocytoma cells expressing P2Y4; assay type: cell-based; conditions: 1321N1 human astrocytoma cells expressing P2Y4
T2 construct: expressed in transfected cells; host or cells: 1321N1 human astrocytoma cells
T2 sequence (P51582 whole entry): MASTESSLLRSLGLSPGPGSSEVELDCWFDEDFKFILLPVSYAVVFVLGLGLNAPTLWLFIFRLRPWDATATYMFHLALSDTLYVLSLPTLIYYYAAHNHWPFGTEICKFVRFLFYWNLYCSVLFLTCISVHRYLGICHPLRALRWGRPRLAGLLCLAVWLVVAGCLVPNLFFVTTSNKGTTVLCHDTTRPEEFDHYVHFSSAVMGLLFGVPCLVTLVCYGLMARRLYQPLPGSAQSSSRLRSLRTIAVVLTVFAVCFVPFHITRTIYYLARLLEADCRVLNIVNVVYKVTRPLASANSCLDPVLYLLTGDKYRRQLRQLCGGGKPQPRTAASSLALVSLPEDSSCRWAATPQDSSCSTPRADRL
Method: (§2) Synthetic ligands were tested for activation of P2Y6 receptor by measuring receptor induced Ca^2+ changes with the fluorescent Ca^2+ indicator fluo-4. 1321N1 human astrocytoma cell lines either expressing P2Y2, P2Y4 or P2Y6 receptors were plated into 24-well plates. Two days after plating, fluorometric measurements were made and responses of cells to a serial dilution of ligands were determined P2Y6 receptor mediated Ca^2+ fluorescent change was determined by normalized accumulation of fluorescent change of 3 timepoints after ligand administration subtracted by value from ACSF control. Changes in fluorescent intensity were plotted corresponding to ligand concention in GraphPad. Dose-response curve and EC50 for each ligand was estimated using nonlinear curve fit and Sigmoidal dose-response analysis. […]
(§3) Synthetic ligands were tested for activation of P2Y6 receptor by measuring receptor induced Ca^2+ changes with the fluorescent Ca^2+ indicator fluo-4, and results are shown in FIG. 10(A)-(K). […] Two days after plating, fluorometric measurements were made and responses of cells to a serial dilution of ligands were determined P2Y6 receptor mediated Ca^2+ fluorescent change was determined by normalized accumulation of fluorescent change of 3 timepoints after ligand administration subtracted by value from ACSF control. […]

P2Y2 receptor = molecular target: T3, P2Y2 receptor (Homo sapiens, UniProt P41231); experiment: Ca2+ mobilizing effect (fluo-4) in 1321N1 astrocytoma cells expressing P2Y2; assay type: cell-based; conditions: 1321N1 human astrocytoma cells expressing P2Y2
T3 construct: expressed in transfected cells; host or cells: 1321N1 human astrocytoma cells
T3 sequence (P41231 whole entry): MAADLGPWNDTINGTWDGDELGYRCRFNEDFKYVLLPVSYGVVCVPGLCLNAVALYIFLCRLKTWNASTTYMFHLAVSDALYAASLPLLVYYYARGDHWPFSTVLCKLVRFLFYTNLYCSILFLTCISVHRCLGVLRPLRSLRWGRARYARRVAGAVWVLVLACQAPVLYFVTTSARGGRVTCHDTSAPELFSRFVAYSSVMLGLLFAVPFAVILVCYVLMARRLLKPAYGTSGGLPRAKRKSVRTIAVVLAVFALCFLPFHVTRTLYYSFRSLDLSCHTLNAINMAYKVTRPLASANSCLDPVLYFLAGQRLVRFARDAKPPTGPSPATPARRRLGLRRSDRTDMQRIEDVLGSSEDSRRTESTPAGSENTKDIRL
Method: as §2, §3

P2Y6 receptor [9] = molecular target: T1, P2Y6 receptor; experiment: Activation of P2Y6 receptor: receptor induced Ca2+ changes with fluo-4 in 1321N1 astrocytoma cells; assay type: cell-based; design: expressed in transfected cells; host or cells: 1321N1 human astrocytoma cells
Method: as §2, §3

[10] = 10 ug/kg i.p. once per day for 7 days, PS1/APP mice, cortex
[11] = barrel cortex, day 4 vs day 1, P<0.01

O=c1ccn([C@@H]2O[C@H](CO)[C@H](O)C2O)c(=O)n1Cc1noc2ccccc12 (some centres unmarked) [compound 5]
Aβ40 plaque burden (PSAPP mice [1]; [10]): significantly reduced
bioavailability (Oral bioavailability): 72.2%
size distribution of remaining plaques (PSAPP mice [2]; 10 ug/kg i.p. once per day for 7 days, PS1/APP mice): significantly reduced
Aβ42 plaque burden (PSAPP mice [2]; [10]): significantly reduced
half-life [3]: 16.4 h

O=C(Cn1c(=O)ccn([C@@H]2O[C@H](COP(=O)(O)OP(=O)(O)O)[C@@H](O)[C@H]2O)c1=O)c1ccccc1 [3-phenacyl-UDP]
detrimental effects to the animal (PSAPP mice [4]): did not cause detrimental effects
effects on the efficacy endpoint at the higher dose (PSAPP mice [2]; 1 mg/kg, one week daily): smaller effects
β1-40 staining after treatment stopped (PSAPP mice [2]; 6 consecutive days i.p., then stopped for 2 weeks (6+2 weeks group), level lower than saline control): rebounded
immunoreactivity of β1-40 in both cortex and hippocampus (PSAPP mice [2]; i.p. for 4 and 6 consecutive days): significantly decreased
selectivity for P2Y6 receptor (P2Y6 receptor [5]): > 500 fold
EC50 (P2Y6 receptor [5]; read-out: EC50, P2Y6 receptor agonist): 70 nM
total freezing percentage in context test (PSAPP mice [6]; chronic injection, two doses): increased

O=c1ccn([C@@H]2O[C@H](COP(=O)(O)OP(=O)(O)O)[C@@H](O)[C@H]2O)c(=O)[nH]1 [UDP, uridine diphosphate]
reduction in plaque load (PSAPP mice [7]; [11]): 17.2%
reduction in the number of plaques (PSAPP mice [7]; [11]): 12.6%
reduction in cross-sectional area of individual identified plaques (PSAPP mice [7]; second imaging session, P<0.01): 18.2%
decrease in plaque load, hippocampus (PSAPP mice [1]; β1-42 antibody staining, hippocampus, acute i.c.v., P<0.05): 47%
decrease in plaque load, cortex (PSAPP mice [2]; β1-40 antibody staining, cortex, acute i.c.v., p<0.05): 60%
decrease in plaque load, hippocampus (PSAPP mice [2]; β1-40 antibody staining, hippocampus, acute i.c.v., p<0.01): 62%
decrease in plaque load, cortex (PSAPP mice [2]; β1-42 antibody staining, cortex, acute i.c.v., P<0.01): 48%
LTP at CA1 of hippocampus compared with ACSF (PSAPP mice [8]; HFS): significantly increased
field excitatory postsynaptic potential (fEPSP), last 15 min potentiation (PSAPP mice [8]; comparable to littermates): significant increase
total freezing percentage (PSAPP mice [6]; acute i.c.v. treatment, ACSF control 18%±3%): 49%±5%

O=c1ccn([C@@H]2O[C@H](COP(=O)(O)OP(=O)(O)O)[C@@H](O)[C@H]2O)c(=O)n1Cc1noc2ccccc12
elevating Ca2+ levels in P2Y4 receptor expressing cells (P2Y4 receptor): not effective
elevating Ca2+ levels in P2Y2 receptor expressing cells (P2Y2 receptor): not effective
EC50 (P2Y6 receptor [9]; 1321N1 human astrocytoma cells expressing P2Y6, fluo-4 Ca2+): 12 nM
ability to elevate Ca2+ signals in P2Y6 receptor expressing cells on addition of P2Y6 antagonist MRS2578 (P2Y6 receptor [9]; with MRS2578): attenuated

Source: patent US10138265B2, “Uridine nucleoside derivatives, compositions and methods of use” (Tufts University, priority 2013, dated 2018)
